Drawing on paper PMC3163098 (2011), this text covers Kd for four molecules.

pKd: −log10 of the molar value.

Broadly, the pKd is the negative decadic logarithm of the Kd, by convention in mol/L.

Holding throughout (assay type): binding
In assay [1] the target is T1, cytochrome P450 2B4 (Oryctolagus cuniculus, UniProt P00178, H226Y).
T1 sequence (P00178 28-491 H226Y): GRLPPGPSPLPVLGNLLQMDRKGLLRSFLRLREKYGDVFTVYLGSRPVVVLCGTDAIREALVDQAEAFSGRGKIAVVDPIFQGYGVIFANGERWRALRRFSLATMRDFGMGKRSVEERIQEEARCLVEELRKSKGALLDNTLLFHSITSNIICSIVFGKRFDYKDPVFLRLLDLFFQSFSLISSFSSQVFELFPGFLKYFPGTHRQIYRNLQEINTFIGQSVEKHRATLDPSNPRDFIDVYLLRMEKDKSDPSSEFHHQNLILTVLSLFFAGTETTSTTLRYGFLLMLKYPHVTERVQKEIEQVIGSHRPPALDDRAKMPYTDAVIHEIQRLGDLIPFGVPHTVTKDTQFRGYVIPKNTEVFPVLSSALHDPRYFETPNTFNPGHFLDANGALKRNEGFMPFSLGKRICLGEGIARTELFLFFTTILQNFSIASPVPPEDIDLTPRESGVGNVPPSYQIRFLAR
The assay can be described thus: UV-visible difference spectral titration.

The target of assay [2] is T1, cytochrome P450 2B4. The assay can be described thus: UV-visible competition with benzphetamine.
The target in assay [3] is T1, cytochrome P450 2B4. As to the kind of experiment: UV-visible difference spectral titration. This is another data set of the same source.
The target in assay [4] is T1, cytochrome P450 2B4. The assay can be described thus: UV-visible difference spectral titration. The source holds these as a separate data set.

Regarding `Cc1c(N)c(=O)n(-c2ccccc2)n1C` [AAP, aminoantipyrine], at cytochrome P450 2B4 [1], the pKd is 2.59.
In turn, `Cc1c(N(C)C)c(=O)n(-c2ccccc2)n1C` [AP, amidopyrine] gave a negative-log Kd (pKd) on cytochrome P450 2B4 [2] of 2.70.
In the case of `C[C@@H](Cc1ccccc1)N(C)Cc1ccccc1` [BP, benzphetamine], the pKd at cytochrome P450 2B4 [3] is 4.47.
At cytochrome P450 2B4 [4], `CNc1c(C)n(C)n(-c2ccccc2)c1=O` [DMAP, desmethylamidopyrine] gave a pKd of 2.49.
